Structures are written as SMILES.

For the experiment, the target named is T1, PI3Kα H1047R (T47D cells) (Homo sapiens, UniProt P42336, H1047R).
T1 construct: endogenous in cells; host or cells: T47D cells
Briefly: PI3Kα cellular assay: pAKT HTRF in T47D cells after EGF stimulation. Type of experiment: cell-based. The following applies: for T47D pAKT S473 HTRF IC50 (H1047R): T47D (H1047R) selectivity over SKBR3 (WT): selectivity of T47D (H1047R) over SKBR3 (WT) pAKT IC50; for IC50: T47D cells (PI3Kα H1047R), pAKT S473 HTRF, EGF stimulation. The method, boiled down:
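pAKT read by HTRF in lysates of EGF-stimulated (20 ng/mL, 10 min) T47D H1047R cells. Before stimulation, serum-starved cells (16 h) received compound for 1 h at 37 °C, dosed from 10,000 nM down to 0.5 nM in 3-fold steps.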

T1 sequence (P42336 whole entry H1047R): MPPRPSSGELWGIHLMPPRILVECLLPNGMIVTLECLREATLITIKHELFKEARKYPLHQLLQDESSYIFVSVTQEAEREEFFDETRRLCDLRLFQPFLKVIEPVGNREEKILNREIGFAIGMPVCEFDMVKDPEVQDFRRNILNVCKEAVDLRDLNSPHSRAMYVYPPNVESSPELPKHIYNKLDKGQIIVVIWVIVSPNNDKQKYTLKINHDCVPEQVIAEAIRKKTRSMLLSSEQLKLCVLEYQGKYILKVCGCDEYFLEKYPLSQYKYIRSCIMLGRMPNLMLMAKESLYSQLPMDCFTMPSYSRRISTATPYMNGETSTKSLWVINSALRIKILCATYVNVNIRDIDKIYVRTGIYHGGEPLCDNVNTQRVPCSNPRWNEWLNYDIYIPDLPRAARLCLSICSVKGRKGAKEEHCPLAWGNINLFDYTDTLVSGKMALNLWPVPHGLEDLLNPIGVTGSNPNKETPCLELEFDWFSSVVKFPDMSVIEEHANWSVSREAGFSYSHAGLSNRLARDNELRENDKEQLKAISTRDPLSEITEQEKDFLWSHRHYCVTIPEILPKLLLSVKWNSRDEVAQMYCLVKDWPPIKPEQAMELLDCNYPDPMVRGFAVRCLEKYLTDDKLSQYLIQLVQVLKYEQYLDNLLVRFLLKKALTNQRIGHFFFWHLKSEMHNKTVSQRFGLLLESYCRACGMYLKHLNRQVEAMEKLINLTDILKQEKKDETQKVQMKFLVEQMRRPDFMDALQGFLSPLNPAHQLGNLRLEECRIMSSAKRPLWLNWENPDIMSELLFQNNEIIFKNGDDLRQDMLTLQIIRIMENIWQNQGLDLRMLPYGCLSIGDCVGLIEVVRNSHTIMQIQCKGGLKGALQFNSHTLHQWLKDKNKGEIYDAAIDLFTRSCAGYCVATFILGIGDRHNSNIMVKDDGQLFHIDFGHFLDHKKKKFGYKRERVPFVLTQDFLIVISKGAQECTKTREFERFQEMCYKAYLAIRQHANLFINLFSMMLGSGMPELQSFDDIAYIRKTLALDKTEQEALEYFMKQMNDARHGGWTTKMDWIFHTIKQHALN
T1 sequence (P27986 whole entry partner): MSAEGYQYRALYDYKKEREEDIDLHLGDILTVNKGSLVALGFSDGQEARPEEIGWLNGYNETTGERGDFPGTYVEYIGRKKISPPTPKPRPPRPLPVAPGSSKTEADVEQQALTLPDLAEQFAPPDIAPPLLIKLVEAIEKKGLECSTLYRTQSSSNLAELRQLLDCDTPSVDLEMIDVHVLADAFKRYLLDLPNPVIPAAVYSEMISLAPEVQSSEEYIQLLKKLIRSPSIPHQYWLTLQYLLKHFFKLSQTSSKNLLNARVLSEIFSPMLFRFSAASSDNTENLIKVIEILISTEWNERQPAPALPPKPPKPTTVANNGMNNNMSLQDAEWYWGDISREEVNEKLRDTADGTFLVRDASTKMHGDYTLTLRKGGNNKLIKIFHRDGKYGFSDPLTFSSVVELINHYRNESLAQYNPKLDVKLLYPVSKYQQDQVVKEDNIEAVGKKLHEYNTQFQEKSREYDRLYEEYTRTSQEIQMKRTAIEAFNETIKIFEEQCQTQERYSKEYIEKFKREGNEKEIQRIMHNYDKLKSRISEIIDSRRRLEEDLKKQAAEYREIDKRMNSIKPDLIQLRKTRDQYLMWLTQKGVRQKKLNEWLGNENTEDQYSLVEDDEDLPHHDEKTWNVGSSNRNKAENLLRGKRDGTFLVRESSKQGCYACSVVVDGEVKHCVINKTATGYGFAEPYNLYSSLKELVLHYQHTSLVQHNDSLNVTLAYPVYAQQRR

On to `Cc1cc([C@H](C)Nc2ccccc2C(=O)O)c2nc(N3C[C@H]4C[C@@H](C5CCN(S(=O)(=O)N(C)C)CC5)C[C@H]4C3)cc(=O)n2c1` [Compound 935], for which the “T47D pAKT S473 HTRF IC50 (H1047R): T47D (H1047R) selectivity over SKBR3 (WT)” value was “C (C denotes ≤5-fold)”.
For orientation: IC50 means the midpoint of a concentration-inhibition curve. The low end stands for greater potency, the high end for weaker potency. As for `C=CC(=O)Nc1cc(C(C)Nc2ccccc2C(=O)O)c2nc(N3Cc4ccccc4C3)cc(=O)n2c1` (stereo not drawn) [Compound 939], the IC50 is above 2000 nM and the “T47D pAKT S473 HTRF IC50 (H1047R): T47D (H1047R) selectivity over SKBR3 (WT)” value was “C (C denotes ≤5-fold)”.
For `Cc1cc([C@@H](C)Nc2cccc(CO)c2C(=O)O)c2nc(-c3ccc4c(c3)c(C)nn4C)cc(=O)n2c1` [Compound 940] the same measures were above 2000 nM and “C (C denotes ≤5-fold)”.
`Cc1cc([C@H](C)Nc2cccc(CO)c2C(=O)O)c2nc(-c3ccc4c(c3)c(C)nn4C)cc(=O)n2c1` [Compound 941]: the concentration for half-maximal inhibition (IC50) is above 2000 nM and the “T47D pAKT S473 HTRF IC50 (H1047R): T47D (H1047R) selectivity over SKBR3 (WT)” value is given as “C (C denotes ≤5-fold)”.
On to `Cc1cc([C@H](C)Nc2cccnc2-c2ccnnc2)c2nc(N3Cc4ccccc4C3)cc(=O)n2c1` [Compound 943], for which the IC50 is 100 to 500 nM and the “T47D pAKT S473 HTRF IC50 (H1047R): T47D (H1047R) selectivity over SKBR3 (WT)” value is “A (A denotes >20-fold)”.
For `Cc1cc(C(C)Nc2ccccc2S(N)(=O)=O)c2nc(-c3ccc4c(c3)c(C)nn4C3CC3)c(C)c(=O)n2c1` (stereo not drawn) [Compound 944] the same measures were 100 to 500 nM and “A (A denotes >20-fold)”.
For `Cc1cc([C@@H](C)Nc2ccccc2C(=O)O)c2nc(-c3ccc4[nH]c(=O)sc4c3)c(C)c(=O)n2c1` [Compound 945] the same measures were below 100 nM and “A (A denotes >20-fold)”.
Turning to `Cc1cc([C@H](C)Nc2ccccc2C(=O)O)c2nc(-c3ccc4[nH]c(=O)sc4c3)c(C)c(=O)n2c1` [Compound 946], the IC50 fell in the range of 500 to 2000 nM and the “T47D pAKT S473 HTRF IC50 (H1047R): T47D (H1047R) selectivity over SKBR3 (WT)” value is “B (B denotes 20-fold≥value>5-fold)”.
Taken in the same sequence, the figures for `Cc1cc([C@H](C)Nc2ccccc2C(=O)O)c2nc(-c3ccc(F)c(C#N)c3)c(C)c(=O)n2c1` [Compound 948] were 500 to 2000 nM and “B (B denotes 20-fold≥value>5-fold)”.
Take `Cc1cc([C@H](C)Nc2ccccc2C(=O)O)c2nc(-c3cccnc3)c(C)c(=O)n2c1` [Compound 950]: the IC50 is above 2000 nM and the “T47D pAKT S473 HTRF IC50 (H1047R): T47D (H1047R) selectivity over SKBR3 (WT)” value was “C (C denotes ≤5-fold)”.
Regarding `Cc1cc([C@H](C)Nc2ccccc2C(=O)O)c2nc(-c3ccnc(C4CC4)c3)c(C)c(=O)n2c1` [Compound 954], the half-inhibitory concentration (IC50) lay within 500 to 2000 nM and the “T47D pAKT S473 HTRF IC50 (H1047R): T47D (H1047R) selectivity over SKBR3 (WT)” value was “B (B denotes 20-fold≥value>5-fold)”.
With `Cc1cc([C@@H](C)Nc2ccccc2C(=O)C(F)(F)F)c2nc(N(C)Cc3ccccc3)c(C)c(=O)n2c1` [Compound 957], the half-inhibitory concentration (IC50) is above 2000 nM and the “T47D pAKT S473 HTRF IC50 (H1047R): T47D (H1047R) selectivity over SKBR3 (WT)” value is given as “C (C denotes ≤5-fold)”.
For `Cc1cc([C@H](C)Nc2ccccc2C(=O)C(F)(F)F)c2nc(N3Cc4ccccc4C3)c(C)c(=O)n2c1` [Compound 958] the same measures were above 2000 nM and “C (C denotes ≤5-fold)”.
Taken in the same sequence, the figures for `Cc1cc([C@@H](C)Nc2ccccc2S(N)(=O)=O)c2nc(-c3ccc4c(c3)c(C)nn4C3CC3)c(C)c(=O)n2c1` [Compound 961] were 100 to 500 nM and “A (A denotes >20-fold)”.
As to `Cc1cc([C@H](C)Nc2ccccc2S(N)(=O)=O)c2nc(-c3ccc4c(c3)c(C)nn4C3CC3)c(C)c(=O)n2c1` [Compound 962], the IC50 is above 2000 nM and the “T47D pAKT S473 HTRF IC50 (H1047R): T47D (H1047R) selectivity over SKBR3 (WT)” value is “C (C denotes ≤5-fold)”.
For the compound `Cc1cc([C@@H](C)Nc2ccccc2C(=O)O)c2nc(-c3cccc(C(F)F)c3)c(C)c(=O)n2c1` [Compound 972, (R)-2-((1-(2-(3-(difluoromethyl)phenyl)-3,7-dimethyl-4-oxo-4H-pyrido[1,2-a]pyrimidin-9-yl)ethyl)amino)benzoic acid], the IC50 is below 100 nM and the “T47D pAKT S473 HTRF IC50 (H1047R): T47D (H1047R) selectivity over SKBR3 (WT)” value is on record as “A (A denotes >20-fold)”.
For `Cc1cc([C@H](C)Nc2ccccc2C(=O)O)c2nc(-c3ccc(C#N)nc3)c(C)c(=O)n2c1` [Compound 976] the same measures were above 2000 nM and “C (C denotes ≤5-fold)”.
In the case of `Cc1cc(C(C)Nc2cccc(C#N)c2C(=O)O)c2nc(-c3ccc4c(c3)c(C)nn4C)cc(=O)n2c1` (stereo not drawn) [Compound 981], the concentration for half-maximal inhibition (IC50) was above 2000 nM and the “T47D pAKT S473 HTRF IC50 (H1047R): T47D (H1047R) selectivity over SKBR3 (WT)” value is recorded as “C (C denotes ≤5-fold)”.
For `Cc1cc([C@@H](C)Nc2ccccc2C(=O)O)c2nc(-c3ccc4c(C)cn(C)c4c3)c(C)c(=O)n2c1` [Compound 984], the half-inhibitory concentration (IC50) is below 100 nM and the “T47D pAKT S473 HTRF IC50 (H1047R): T47D (H1047R) selectivity over SKBR3 (WT)” value is recorded as “A (A denotes >20-fold)”.
For `Cc1cc([C@H](C)Nc2ccccc2C(=O)O)c2nc(-c3ccc4c(C)cn(C)c4c3)c(C)c(=O)n2c1` [Compound 985] the same measures were above 2000 nM and “C (C denotes ≤5-fold)”.
With `Cc1cc([C@H](C)Nc2ccccc2S(N)(=O)=O)c2nc(-c3cnc4c(c3)c(C)nn4C)c(C)c(=O)n2c1` [Compound 988], the IC50 is above 2000 nM and the “T47D pAKT S473 HTRF IC50 (H1047R): T47D (H1047R) selectivity over SKBR3 (WT)” value was “C (C denotes ≤5-fold)”.
As to `Cc1cc(C(C)Nc2ccccc2S(N)(=O)=O)c2nc(-c3cnc4c(c3)c(C)nn4C3CC3)c(C)c(=O)n2c1` (stereo not drawn) [Compound 990], the IC50 fell in the range of 100 to 500 nM and the “T47D pAKT S473 HTRF IC50 (H1047R): T47D (H1047R) selectivity over SKBR3 (WT)” value was “A (A denotes >20-fold)”.
On to `Cc1cc([C@@H](C)Nc2ccccc2S(N)(=O)=O)c2nc(-c3cnc4c(c3)c(C)nn4C3CC3)c(C)c(=O)n2c1` [Compound 991], for which the IC50 lay in the range of 100 to 500 nM and the “T47D pAKT S473 HTRF IC50 (H1047R): T47D (H1047R) selectivity over SKBR3 (WT)” value is on record as “A (A denotes >20-fold)”.
Turning to `Cc1cc([C@@H](C)Nc2ccccc2S(N)(=O)=O)c2nc(-c3ccc4c(c3)c(C)cn4C3CC3)c(C)c(=O)n2c1` [Compound 995], the IC50 is above 2000 nM and the “T47D pAKT S473 HTRF IC50 (H1047R): T47D (H1047R) selectivity over SKBR3 (WT)” value is on record as “C (C denotes ≤5-fold)”.
Consider `Cc1cc(C(C)Nc2cccc3c2S(=O)(=O)NC3=O)c2nc(N3Cc4ccccc4C3)cc(=O)n2c1` (stereo not drawn) [Compound 998], for which the “T47D pAKT S473 HTRF IC50 (H1047R): T47D (H1047R) selectivity over SKBR3 (WT)” value is given as “C (C denotes ≤5-fold)”.
In the case of `Cc1cc([C@@H](C)Nc2ccccc2C(=O)O)c2nc(-c3ccncc3)c(C)c(=O)n2c1` [Compound 1004], the IC50 is above 2000 nM and the “T47D pAKT S473 HTRF IC50 (H1047R): T47D (H1047R) selectivity over SKBR3 (WT)” value is reported as “C (C denotes ≤5-fold)”.
Regarding `Cc1cc([C@H](C)Nc2ccccc2C(=O)O)c2nc(-c3ccc4c(c3)c(C)cn4C3CCOCC3)c(C)c(=O)n2c1` [Compound 1009], the “T47D pAKT S473 HTRF IC50 (H1047R): T47D (H1047R) selectivity over SKBR3 (WT)” value is recorded as “C (C denotes ≤5-fold)”.
In the case of `Cc1cc([C@@H](C)Nc2cc[nH]c2-c2ccnnc2)c2nc(N3Cc4ccccc4C3)c(C)c(=O)n2c1` [Compound 1014], the “T47D pAKT S473 HTRF IC50 (H1047R): T47D (H1047R) selectivity over SKBR3 (WT)” value is “C (C denotes ≤5-fold)”.
As for `CCc1c(-c2ccc3c(c2)c(C)cn3C)nc2c(C(C)Nc3ccccc3C(=O)O)cc(C)cn2c1=O` (stereo not drawn) [Compound 1019], the 50% inhibitory concentration (IC50) was 100 to 500 nM and the “T47D pAKT S473 HTRF IC50 (H1047R): T47D (H1047R) selectivity over SKBR3 (WT)” value is listed as “A (A denotes >20-fold)”.
